Data as given in US11078232B2, “Preparation and use of molecular site targeted and activated kinase inhibitor” (Yafei Shanghai Biology Medicine Science & Technology Co. …, priority 2017, dated 2021).
Read-outs that look alike come from different tables or passages of the source. Residues, ends and D or L forms follow the SMILES beside them. *: point of attachment. Doxorubicin(3'-N) = COc1cccc2c1C(=O)c1c(O)c3c(c(O)c1C2=O)C[C@@](O)(C(=O)CO)C[C@@H]3O[C@H]1C[C@H](N*)[C@H](O)[C@H](C)O1; X1 = CN(CCNC(=O)c1cc(Oc2ccc(NC(=O)Nc3ccc(Cl)c(C(F)(F)F)c3)cc2)ccn1)*; Hexanoyl(6-maleimido) = O=C1C=CC(=O)N1CCCCCC(=O)*

Legend:
BALB/C mouse = assay: MTD (maximum tolerated dose) acute toxicity in mice; format: in vivo; conditions: intravenous; for Number of deaths: 10 mice per group; for Death dose: observed 17 days
Excerpt: (§1) Test purpose: to investigate the acute toxicity of highly activated compounds by targeted site molecules of the invention by measuring the MTD (maximum tolerated dose) experiment in mice.
(§2) The injections of each drug and the control drug were uniformly dissolved using water for injection, and diluted to the corresponding dose with physiological saline during the test.
(§3) Methods and results: […] BALB/C mice, weighing 19-21 g, were randomly divided into 10 groups, with 10 mice in each group. […] A control test of the saline group and the adriamycin group injection (commercially available, Beijing Yue kang) was carried out, and the injection volume of each mouse was 0.2 ml. […] On the D3, D5, and D14, blood samples were taken for whole blood count.

[1] = as above; format: in vivo, mouse; conditions: mouse, in vivo, BALB/C mice, intravenous, observed 17 days; for MTD at 17 days: female
Excerpt: as §1, §2, §3

CT26 tumor cells [2] = assay: CT26 treatment model (Example 17); format: in vivo, mice; conditions: CT26 model as in Example 15
Method: (§4) 1) CT26 tumor cells were purchased from ATCC, and the cells were cultured using a 10% fetal bovine serum DMEM medium at 37° C., 5% CO2. The cells were passaged every 3 days and the cells were used within 15 generations.
(§5) 2) Tumor production: 10^6 live CT26 tumor cells were injected subcutaneously into the back of tumor-immunized […], and treatment was started when the tumor grew to about 0.3-0.4 cm. The tumor size (mm^3) of the mice was recorded and compared with the solvent control group. The tumor inhibition rate on day 42 was calculated in the solvent control group.
(§6) 3) Treatment process: IV injection is used, and the drug is used at a dose of ⅓ MTD once a week Immunosuppressive IV injection treatment once a week for a total of 6 weeks of treatment.
(§7) 4) The cure rate of 10 in each group was counted. After 50 days, the cured mice and wild groups were inoculated […] to detect recurrence.
The CT26 immunotherapy model was constructed as in Example 15, and the pharmacodynamic and immunotherapeutic effects of the compounds S4-S6, S9-S12 and S15-S18 in the CT26 treatment model were tested.

CT26 tumor cells [3] = assay: CT26 immunotherapy model (Example 15); format: in vivo, mice
Method: as §4, §5, §6, §7

D121 lung cancer cells = assay: D121 lung cancer immunotherapy model; conditions: for Tumor inhibition rate/% (week 7) / CD8: CD45 (%): single agent; for Tumor inhibition rate/% (week 7): i.v. ⅙ MTD once a week for 4 weeks; for CD8: CD45 (%): tumor CD8+ T cells among CD45-positive cells
Method: (1) D121 lung cancer cells purchased from ATCC were cultured in DMEM medium containing 10% fetal bovine serum at 37° C. and 5% CO2, and the cells were digested with EDTA trypsin according to routine use, and passed two to three times a week for placement.
(2) Animals: C57 BALB/C mice, 6-8 weeks old, female, weighing about 18-22 g, purchased from Shanghai SLAC Laboratory Animal Co., Ltd.
3) Immunization: Mice were intraperitoneally injected with 100 μL of 5×10^5 D121 lung cancer cells that died by repeated freeze-thaw cycles, and immunized 3 times with an interval of 2 weeks.
4) Cell seeding: Collect the tumor cells in logarithmic growth phase, adjust the D121 cell concentration to (1×10^7/ml) with DMEM basal medium, 0.1 ml of the cell suspension was inoculated to the right side of each mouse subcutaneously with a 1 ml syringe. […] Tumor volume was observed and measured, and the average tumor volume reached 100-200 mm^3 about 7 days after inoculation, that is, tumor cell-bearing mice were grouped and administered. The immunized group in Table 9 was immunized with D121 lung cancer cells, and the D121 dead tumor cell immunized group was injected with physiological saline as a control.
The immunosuppressive regulatory point protein Anti-PD-L1 antibody was injected twice a week. A total of two weeks.
6) Experimental observation: During the whole experiment, the use and observation of experimental animals were carried out in accordance with the regulations of AAALAC. The experimental animals were observed daily after inoculation of tumor cells, and their onset and death were recorded. During the routine experiment, all experimental animals were monitored and recorded for behavior, feeding, water intake, weight change, hair shine and other abnormalities.
(7) Analysis of tumor CD8+ T cells (T lymphocyte subsets). Tumor tissues were ground and single cancer cells were isolated by filtration using 40 μm Nylon cell strainer, lysed twice with blood cell lysis buffer for 20 min, washed twice with 1% BSA-PBS buffer, centrifuged, and resuspended, and then the cells were counted again. 1×10^5 cells were incubated with leukocyte co-antigen CD45-PE and CD8-FITC-labeled antibody for 1 hour at room temperature in the dark, and then analyzed the proportion of T lymphocyte antigen (CD8) in leukocyte common antigen (CD45)-positive cells by flow cytometry.

[4] = Solid stability, 60° C. for 10 days in the dark (HPLC); format: physicochemical
Method: The test was carried out by leaving it at 60° C. for 10 days in the dark. The ratio of the change in the content of the compound to the compound at time 0 was measured by HPLC, and the stability value (%) was calculated.

[5] = solid, 60° C., 10 days, dark, content versus time 0

| SMILES | Number of deaths (BALB/C mouse) | Death dose (BALB/C mouse) [mg/kg] | MTD at 17 days [1] [mg/kg] | CD8: CD45 (%) (CT26 tumor cells [2]) | Number of animals cured (CT26 tumor cells [2]) | Recurrence rate/% (at week 10) (CT26 tumor cells [2]) [%] | Tumor inhibition rate/% (at week 7) (CT26 tumor cells [2]) [%] | Cure rate % (CT26 tumor cells [3]; 10 in each group) [%] | Number of cures (CT26 tumor cells [3]; 10 in each group) | Tumor inhibition rate % (Day 42) (CT26 tumor cells [3]; IV ⅓ MTD once a week, 6 weeks) [%] | effect on T cells (D121 lung cancer cells; flow cytometry, discussion of Table 6) | Tumor inhibition rate/% (week 7) (D121 lung cancer cells) [%] | CD8: CD45 (%) (D121 lung cancer cells; flow cytometry) | Stability verdict (stable / unstable) [4] | Stability(%) [4] | Stability verdict (stable / unstable) ([4]; solid, 60° C., 10 days, dark) | Stability(%) [4, 5] [%] | MTD [1] [mg/kg] |
| --- | --- | --- | --- | --- | --- | --- | --- | --- | --- | --- | --- | --- | --- | --- | --- | --- | --- | --- |
| COc1cccc2c1C(=O)c1c(O)c3c(c(O)c1C2=O)C[C@](O)(C(=O)CO)CC3OC1C[C@H](NC(=O)OCc2ccc(NC(=O)C(CC(N)=O)NC(=O)C(C)NC(=O)C(NC(=O)[C@H](O)[C@H](O)[C@@H](O[C@@H]3O[C@H](CO)[C@H](O)[C@H](O)[C@H]3O)[C@H](O)CO)C(C)O)cc2)[C@H](O)[C@H](C)O1 (stereo partly shown) [Compound S15] | 1 | 100 | 90 | 15.3 | 1 | 0 | 70.2 |  |  |  |  |  |  |  |  |  |  |  |
| CC(NC(=O)C(NC(=O)[C@H](O)[C@H](O)[C@@H](O[C@@H]1O[C@H](CO)[C@H](O)[C@H](O)[C@H]1O)[C@H](O)CO)C(C)O)C(=O)NC(CC(N)=O)C(=O)Nc1ccc(COC(=O)Nc2c(-c3nc4ccc(N5CCN(C)CC5)cc4[nH]3)c(=O)[nH]c3cccc(F)c23)cc1 (stereo partly shown) [Compound S17] | 1 | 310 | 290 | 16.2 | 1 | 0 | 70.9 |  |  |  |  |  |  |  |  |  |  |  |
| COc1cccc2c1C(=O)c1c(O)c3c(c(O)c1C2=O)C[C@@](O)(C(=O)CO)C[C@@H]3O[C@H]1C[C@H](N)[C@H](O)[C@H](C)O1 [Adriamycin, reference compound] | 3 | 10 |  | 6.4 | 0 |  | 14.6 | 0 | 0 | 24.5 | inhibited T cells | 14.6 | 5.4 |  |  |  |  |  |
| COc1cccc2c1C(=O)c1c(O)c3c(c(O)c1C2=O)C[C@@](O)(C(=O)CO)C[C@@H]3O[C@H]1C[C@H](NC(=O)[C@H](CC(C)C)NC(=O)[C@H](CC(N)=O)NC(=O)[C@H](C)NC(=O)[C@H](C)NC(=O)CCCCCN2C(=O)C=CC2=O)[C@H](O)[C@H](C)O1 [Compound C11, EMC-AANL-Adriamycin, reference compound] ({Hexanoyl(6-maleimido)}-AANL-{Doxorubicin(3'-N)}) | 2 | 120 | 110 |  |  |  |  |  |  |  |  |  |  | 96.5, stable | 96.5, stable % |  |  |  |
| CC(NC(=O)C(C)NC(=O)[C@H](O)[C@H](O)[C@@H](O[C@@H]1O[C@H](CO)[C@H](O)[C@H](O)[C@H]1O)[C@H](O)CO)C(=O)NC(CC(N)=O)C(=O)Nc1ccc(COC(=O)N2CC(C)(C)c3ccc(NC(=O)c4cccnc4NCc4ccncc4)cc32)cc1 (stereo partly shown) [Compound S6] | 1 | 290 | 280 | 14.9 | 1 | 0 | 66.7 |  |  |  |  | 73.4 | 14.4 |  |  |  |  |  |
| CC(NC(=O)C(C)NC(=O)[C@H](O)[C@H](O)[C@@H](O[C@@H]1O[C@H](CO)[C@H](O)[C@H](O)[C@H]1O)[C@H](O)CO)C(=O)NC(CC(N)=O)C(=O)Nc1ccc(COC(=O)Nc2c(-c3nc4ccc(N5CCN(C)CC5)cc4[nH]3)c(=O)[nH]c3cccc(F)c23)cc1 (stereo partly shown) [Compound S5] | 2 | 320 | 310 | 11.5 | 1 | 0 | 60.1 |  |  |  |  | 76.7 | 15.3 |  |  |  |  |  |
| CC(NC(=O)C(NC(=O)[C@H](O)[C@H](O)[C@@H](O[C@@H]1O[C@H](CO)[C@H](O)[C@H](O)[C@H]1O)[C@H](O)CO)C(C)O)C(=O)NC(CC(N)=O)C(=O)Nc1ccc(COC(=O)N2CC(C)(C)c3ccc(NC(=O)c4cccnc4NCc4ccncc4)cc32)cc1 (stereo partly shown) [Compound S18] | 2 | 290 | 280 | 15.6 | 2 | 0 | 71.7 |  |  |  |  |  |  |  |  |  |  |  |
| CC(NC(=O)C(NC(=O)[C@H](O)[C@H](O)[C@@H](O[C@@H]1O[C@H](CO)[C@H](O)[C@H](O)[C@H]1O)[C@H](O)CO)C(C)C)C(=O)NC(CC(N)=O)C(=O)Nc1ccc(COC(=O)Nc2nccc(-c3sc(C(C)(C)C)nc3-c3cccc(NS(=O)(=O)c4c(F)cccc4F)c3F)n2)cc1 (stereo partly shown) [Compound S10] | 1 | 320 | 310 | 15.9 | 2 | 0 | 76.7 |  |  |  |  |  |  |  |  |  |  |  |
| C[C@H](N)C(=O)N[C@@H](C)C(=O)N[C@@H](CC(N)=O)C(=O)Nc1ccc(COC(=O)N(C)CCNC(=O)c2cc(Oc3ccc(NC(=O)Nc4ccc(Cl)c(C(F)(F)F)c4)cc3)ccn2)cc1 [Compound C2, AAN-PABC-Compound a, reference compound] | 2 | 70 | 60 |  |  |  |  |  |  |  |  |  |  |  |  | unstable | 89.4 |  |
| CC(C)C[C@H](NC(=O)[C@H](CC(N)=O)NC(=O)[C@H](C)NC(=O)[C@H](C)N)C(=O)N(C)CCNC(=O)c1cc(Oc2ccc(NC(=O)Nc3ccc(Cl)c(C(F)(F)F)c3)cc2)ccn1 [Compound C1, AANL-Compound a, reference compound] (H-AANL-X1) | 1 | 80 | 65 |  |  |  |  |  |  |  |  |  |  |  |  | stable | 96.8 |  |
| COc1cccc2c1C(=O)c1c(O)c3c(c(O)c1C2=O)C[C@](O)(C(=O)CO)CC3OC1C[C@H](NC(=O)OCc2ccc(NC(=O)C(CC(N)=O)NC(=O)C(C)NC(=O)C(NC(=O)[C@H](O)[C@H](O)[C@@H](O[C@@H]3O[C@H](CO)[C@H](O)[C@H](O)[C@H]3O)[C@H](O)CO)C(C)C)cc2)[C@H](O)[C@H](C)O1 (stereo partly shown) [Compound S9] | 2 | 120 | 100 | 13.8 | 3 | 0 | 66.7 |  |  |  |  |  |  |  |  |  |  |  |
| CC(NC(=O)C(NC(=O)[C@H](O)[C@H](O)[C@@H](O[C@@H]1O[C@H](CO)[C@H](O)[C@H](O)[C@H]1O)[C@H](O)CO)C(C)C)C(=O)NC(CC(N)=O)C(=O)Nc1ccc(COC(=O)Nc2c(-c3nc4ccc(N5CCN(C)CC5)cc4[nH]3)c(=O)[nH]c3cccc(F)c23)cc1 (stereo partly shown) [Compound S11] | 2 | 330 | 300 | 15.1 | 2 | 0 | 69.3 |  |  |  |  |  |  |  |  |  |  |  |
| CC(NC(=O)C(NC(=O)[C@H](O)[C@H](O)[C@@H](O[C@@H]1O[C@H](CO)[C@H](O)[C@H](O)[C@H]1O)[C@H](O)CO)C(C)C)C(=O)NC(CC(N)=O)C(=O)Nc1ccc(COC(=O)N2CC(C)(C)c3ccc(NC(=O)c4cccnc4NCc4ccncc4)cc32)cc1 (stereo partly shown) [Compound S12] | 1 | 300 | 290 | 10.8 | 1 | 0 | 55.5 |  |  |  |  |  |  |  |  |  |  |  |
| C[C@H](NC(=O)[C@@H](NC(=O)[C@H](O)[C@@H](O)[C@H](O[C@@H]1O[C@H](CO)[C@H](O)[C@H](O)[C@H]1O)[C@H](O)CO)[C@@H](C)O)C(=O)N[C@@H](CC(N)=O)C(=O)Nc1ccc(COC(=O)Nc2nccc(-c3sc(C(C)(C)C)nc3-c3cccc(NS(=O)(=O)c4c(F)cccc4F)c3F)n2)cc1 [Compound S16] | 2 | 300 |  | 15.5 | 2 | 0 | 71.6 |  |  |  |  |  |  |  |  |  |  | 290 |
